Settings: not given

Compound | boiling point [°C] | log10 Henry constant (atm·m³/mol) | log10 Koc (L/kg) | log10 vapour pressure (mmHg) | melting point [°C] | ready biodegradability | log10 Koa | log10 biodegradation half-life (days)
Cc1cccc(N)c1 | 203 | -5.78 | 1.53 | -0.519 | -31.2 | not readily biodegradable | – | –
COc1ccc(NS(=O)(=O)c2ccc(N)cc2)nn1 | – | – | – | – | 182 | – | – | –
CC(=O)N1CCCCC1 | 226 | – | – | – | -13.4 | – | – | –
CC(C)N(C(=O)CCl)c1ccccc1 | – | – | 2.42 | -3.64 | 77 | – | – | –
CCCC(CCC)C(N)=O | – | – | – | – | 125 | – | – | –
CC1(C)CCc2ccccc21 | 191 | – | – | – | – | – | – | –
CCC(N)=O | 213 | – | – | -1.42 | 81.3 | – | – | –
C=Cc1c(Cl)cccc1Cl | – | – | – | – | 89 | – | – | –
CCN(CC)c1ccccc1C | 209 | – | – | – | -60 | – | – | –
O=C(O)/C=C\C(=O)O | – | – | – | – | 130 | readily biodegradable | – | –
Cc1nc2ccccc2[nH]1 | – | – | – | – | 176 | – | – | –
COC(=O)c1cc2ccccc2cc1O | – | – | – | – | 75.5 | – | – | –
Clc1ccc(Cl)c2c(Cl)cccc12 | – | – | – | – | – | – | 7.56 | –
CC(C)(C)C(O)C(Oc1ccc(Cl)cc1)n1cncn1 (configuration not stated) | – | – | 2.7 | -9.51 | 124 | – | – | –
ClCC=Cc1ccccc1 | – | – | – | – | -19 | – | – | –
OCCN1CC1 | 168 | – | – | – | – | – | – | –
CCCCCC(O)(CC)CC | 199 | – | – | – | – | – | – | –
O=C(O)c1ccccn1 | – | – | – | – | 136 | readily biodegradable | – | –
CCS(=O)CC | – | – | – | – | 14 | – | – | –
CC(C=NO)=NO | – | – | – | – | 157 | – | – | –
CC(C)(C)CC(C)(C)S | 160 | – | – | 0.716 | -74 | – | – | –
NC(=O)Cc1cccc2ccccc12 | – | – | 2 | – | 184 | – | – | –
Cc1cc(C)nc(NS(=O)(=O)c2ccc(N)cc2)n1 | – | – | – | – | 198 | – | – | –
COc1ccc(OC)c(N)c1 | 270 | – | – | – | 82.5 | – | – | –
CC(C(=O)O)c1ccc(N2CC=CC2)c(Cl)c1 (configuration not stated) | – | – | – | – | 99 | – | – | –
CCN(CC)CCNC(=O)c1cc(Cl)c(N)cc1OC | – | – | – | – | 147 | – | – | –
O=C(O)CCc1ccc(O)cc1 | – | – | – | – | 131 | – | – | –

Compound | boiling point [°C] | log10 Henry constant (atm·m³/mol) | log10 Koc (L/kg) | log10 vapour pressure (mmHg) | melting point [°C] | ready biodegradability | log10 Koa | log10 biodegradation half-life (days)
CCOc1ccc(C=O)cc1OCC | 279 | – | – | – | 22 | – | – | –
BrCCCCCCCCCCBr | – | – | – | – | – | not readily biodegradable | – | –
CCc1ccc(C(C)C)cc1 | 197 | – | – | – | – | – | – | –
Nc1c(Cl)cccc1C(=O)O | – | – | – | – | 190 | – | – | –
CN(C)CCCN1c2ccccc2CCc2ccc(Cl)cc21 | – | – | – | – | 190 | – | – | –
CC(C)[C@H](C)CC[C@@H](C)[C@H]1CC[C@H]2[C@@H]3CC=C4C[C@@H](O)CC[C@]4(C)[C@H]3CC[C@]12C | – | – | – | – | 158 | – | – | –
Nc1c(I)cc(I)c(C(=O)N(CCC(=O)O)c2ccccc2)c1I | – | – | – | – | 134 | – | – | –
CCCC(C)(O)CC(C)C (configuration not stated) | 171 | – | – | – | – | – | – | –
CCCCOCOCCCC | 179 | – | – | – | -58.1 | – | – | –
CCC(C)C(CC)C(C)C (configuration not stated) | 162 | – | – | – | – | – | – | –
C=CC(=O)OCCCCCC | – | – | – | – | -45 | readily biodegradable | – | –
OCc1ccccc1I | – | – | – | – | 92 | – | – | –
CCC(CC1CCCCC1)CC1CCCCC1 | 306 | – | – | – | – | – | – | –
Nc1ccc(/N=N/c2ccc(S(N)(=O)=O)cc2)c(N)c1 | – | – | – | – | 250 | – | – | –
C[C@@H](S)C(=O)O | – | – | – | – | 12 | – | – | –
O=C(O)c1ccccc1Cc1ccccc1 | – | – | – | – | 118 | – | – | –
CCCCOC(=O)c1ccc(O)cc1 | – | – | – | – | 68.5 | – | – | –
CC(C)OC(=O)OOC(C)(C)C | – | – | – | – | – | not readily biodegradable | – | –
Nc1cc(Cl)c(S(N)(=O)=O)cc1S(N)(=O)=O | – | – | – | – | 254 | – | – | –
O=C(O)C(Br)Br | – | -8.35 | – | – | 49 | – | – | –
N=C(N)NC(N)=O | – | – | – | – | 105 | – | – | –
CCCOC(=O)c1ccccc1C(=O)OCCC | 318 | – | – | -3.88 | – | – | – | –
N#Cc1nn(-c2c(Cl)cc(C(F)(F)F)cc2Cl)c(N)c1S(=O)C(F)(F)F (configuration not stated) | – | – | – | -8.56 | 200 | – | – | –
CCc1cccc(C)c1N(C(=O)CCl)C(C)COC (configuration not stated) | – | -8.05 | 2.46 | -4.5 | -51 | – | – | –
CCCC(=O)C(=O)O | 179 | – | – | – | 6.5 | – | – | –
CCCCNC(=O)NS(=O)(=O)c1ccccc1 | – | – | – | – | 131 | – | – | –
CN(C)c1cccc([N+](=O)[O-])c1 | 282 | – | – | – | 60.5 | – | – | –

Compound | boiling point [°C] | log10 Henry constant (atm·m³/mol) | log10 Koc (L/kg) | log10 vapour pressure (mmHg) | melting point [°C] | ready biodegradability | log10 Koa | log10 biodegradation half-life (days)
CC(O)CNCCN (configuration not stated) | – | – | – | – | -50 | – | – | –
CCC(C)CC(O)CC (configuration not stated) | 172 | – | – | – | -91.2 | – | – | –
O=C(Cl)c1cccc([N+](=O)[O-])c1 | 276 | – | – | – | 36 | – | – | –
CC(=O)Oc1ccc(C)c(C)c1 | 235 | – | – | – | 22 | – | – | –
CC(=O)Nc1ccc(S(N)(=O)=O)cc1 | – | – | – | – | 220 | – | – | –
CCCC=Cc1ccccc1 | 217 | – | – | – | – | – | – | –
COc1cc(O)c2c(c1)OC(c1ccc(O)cc1)CC2=O (configuration not stated) | – | – | – | – | 152 | – | – | –
Oc1ccc(N=Nc2ccc(N=Nc3ccccc3)c3ccccc23)cc1 | – | – | – | – | 210 | – | – | –
Cc1c(F)c(F)cc(F)c1F | 126 | – | – | – | – | – | – | –
Cc1ccc(NC(=O)c2ccccc2)cc1 | – | – | – | – | 158 | – | – | –
CC1(C)CCCC1 | 87.5 | – | – | 1.88 | -69.8 | – | – | 1.28
BrC(c1ccccc1)(c1ccccc1)c1ccccc1 | – | – | – | – | 153 | – | – | –
CS/C(C)=N/OC(=O)N(C)SN(C)C(=O)O/N=C(\C)SC | – | – | 2.54 | -4.15 | 173 | – | – | –
c1ccc2sc(SSN3CCOCC3)nc2c1 | – | – | – | – | 135 | – | – | –
CCOC(C)(C)CC | 102 | – | – | 1.7 | – | – | – | –
ClCc1cc(Cl)c(Cl)cc1Cl | 273 | – | – | – | – | – | – | –
Cc1ccc(CCC=O)cc1 | 223 | – | – | – | – | – | – | –
CCCC(=O)O | – | -6.27 | – | 0.217 | -5.7 | readily biodegradable | – | –
C/C=C/C=C/C(=O)O | – | – | – | – | – | readily biodegradable | – | –
CC(=O)Oc1ccc(C(=C2CCCCC2)c2ccc(OC(C)=O)cc2)cc1 | – | – | – | – | 136 | – | – | –
c1ccc(C(c2ccccc2)(c2ccccc2)N2CCOCC2)cc1 | – | – | – | – | 175 | – | – | –
CCCCCC(=O)Cc1cc(O)cc2c1C(=O)Oc1cc(O)c(C(=O)O)c(CCCCC)c1O2 | – | – | – | – | 205 | – | – | –
CCCCOC(=O)OCCCC | 170 | – | – | – | – | – | – | –
CCCCCCCCCCCC(=O)Oc1c(Cl)c(Cl)c(Cl)c(Cl)c1Cl | – | – | – | – | – | not readily biodegradable | – | –
Cc1c(NC(C)C)c(=O)n(-c2ccccc2)n1C | – | – | – | – | 80 | – | – | –
C=CC(C)(C)C | 41.2 | – | – | 2.63 | -115 | – | – | –
Cc1csc(C)n1 | 146 | – | – | 0.706 | – | – | – | –

Compound | boiling point [°C] | log10 Henry constant (atm·m³/mol) | log10 Koc (L/kg) | log10 vapour pressure (mmHg) | melting point [°C] | ready biodegradability | log10 Koa | log10 biodegradation half-life (days)
O=C1NC(=O)C([N+](=O)[O-])C(=O)N1 | – | – | – | – | 180 | – | – | –
C1=C(c2ccccc2)CCCC1 | 252 | – | – | – | -11 | – | – | –
CCOC(O)C(F)(F)F (configuration not stated) | 104 | – | – | – | – | – | – | –
CC1(C)[C@H](C(=O)O)CC[C@]1(C)C(=O)O | – | – | – | – | 189 | – | – | –
OCC(Br)CBr (configuration not stated) | – | – | – | -1.04 | – | – | – | –
CCC1COC(Cn2cncn2)(c2ccc(Cl)cc2Cl)O1 (configuration not stated) | – | – | – | – | 84 | – | – | –
c1ccc(Oc2ccccc2)cc1 | 258 | – | 3.29 | -1.65 | 26.8 | readily biodegradable | – | –
Sc1ccc(Br)cc1 | 230 | – | – | – | 73 | – | – | –
COc1cccc([N+](=O)[O-])c1C | – | – | – | – | 55 | – | – | –
CCCCCCCCCCCCCCCCCC(=O)N(CCO)CCO | – | – | – | – | – | readily biodegradable | – | –
FC(F)(F)c1cccc(C(F)(F)F)c1 | 116 | – | – | – | – | not readily biodegradable | – | –
O=P(O)(O)CCCl | – | – | 0 | -7.01 | 74.2 | – | – | –
FC(F)(F)C(Cl)=C(Cl)C(F)(F)F | 68.5 | – | – | – | -67.3 | – | – | –
S=C1SCN(Cc2ccccc2)CN1Cc1ccccc1 | – | – | – | – | 102 | – | – | –
O=C1OC(=O)c2cccc3cccc1c23 | – | – | – | – | 270 | – | – | –
Cc1cc2c(cc1C)C(=O)c1ccccc1C2=O | – | – | – | – | 211 | – | – | –
CC(C)OC(=O)C=CC(=O)OC(C)C | 280 | – | – | – | 2.1 | – | – | –
CC(C)CC(C)Cl (configuration not stated) | 113 | – | – | – | – | – | – | –
c1ncncn1 | 114 | – | – | – | 86 | – | – | –
ClCCCBr | 143 | – | – | 0.806 | -58.9 | not readily biodegradable | – | –
O=Cc1cccc(C=O)c1 | 246 | – | – | – | 89.5 | – | – | –
CCc1oc2ccccc2c1C(=O)c1ccc(O)cc1 | – | – | – | – | 124 | – | – | –
CCOC(=O)c1nc(C(Cl)(Cl)Cl)n(-c2ccc(Cl)cc2Cl)n1 | – | – | – | -8.18 | 110 | – | – | –
O=C(O)COc1nc(Cl)c(Cl)cc1Cl | – | – | 1.67 | -5.9 | 149 | – | – | –

Same assay, conditions: fish

Compound | log10 biotransformation half-life (days) | log10 BCF
N#Cc1nn(-c2c(Cl)cc(C(F)(F)F)cc2Cl)c(N)c1S(=O)C(F)(F)F (configuration not stated) | -0.21 | –
c1ccc(Oc2ccccc2)cc1 | -0.09 | 2.5

Reference: the OPERA property sets (Mansouri et al. 2018)
